Measured values: US12252488B2 (Nimbus Saturn, Inc., priority 2021, dated 2025)

target: T1, HPK1 (Homo sapiens, UniProt Q92918); experiment: HPK1 biochemical enzyme assay (microfluidic mobility shift assay); conditions: 1000 uM (1 mM) ATP; Caliper mobility shift; 1.5 nM HPK1; 30 min preincubation; read-out: HPK1 1000UMATP caliper IC50
T1 construct: purchased Invitrogen
Experimental: Example 33. HPK1 Biochemical Enzyme Assay
HPK1 biochemical enzyme assay: HPK1 enzyme inhibition was measured using a microfluidic mobility shift assay. Reactions were performed in a 384-well plate, containing 1.5 nM HPK1 (Invitrogen), in assay buffer (Carna Biosciences; pH 7.4). Test compounds were titrated in ten point curves (top final assay concentration 3 μM), and preincubated with enzyme/substrate mix for 30 min prior to initiation of the reaction by addition of ATP (1 mM final concentration) and substrate (1 μM final concentration; Carna Biosciences) diluted in assay buffer supplemented by MgCl2 (final assay concentration of 5 mM). Following 60 min incubation at RT, the reaction was terminated by addition of 60 μl/well termination buffer (Carna Biosciences) and signal determination using a Caliper EZ Reader (Perkin Elmer, UK).
The compound numbers correspond to the compound numbers in Table 1. Compounds having an activity designated as “A” provided an IC50≤100 nM; compounds having an activity designated as “B” provided an IC50>100 nM and ≤1,000 nM; compounds having an activity designated as “C” provided an IC50>1,000 nM.

T1 sequence (Q92918 whole entry): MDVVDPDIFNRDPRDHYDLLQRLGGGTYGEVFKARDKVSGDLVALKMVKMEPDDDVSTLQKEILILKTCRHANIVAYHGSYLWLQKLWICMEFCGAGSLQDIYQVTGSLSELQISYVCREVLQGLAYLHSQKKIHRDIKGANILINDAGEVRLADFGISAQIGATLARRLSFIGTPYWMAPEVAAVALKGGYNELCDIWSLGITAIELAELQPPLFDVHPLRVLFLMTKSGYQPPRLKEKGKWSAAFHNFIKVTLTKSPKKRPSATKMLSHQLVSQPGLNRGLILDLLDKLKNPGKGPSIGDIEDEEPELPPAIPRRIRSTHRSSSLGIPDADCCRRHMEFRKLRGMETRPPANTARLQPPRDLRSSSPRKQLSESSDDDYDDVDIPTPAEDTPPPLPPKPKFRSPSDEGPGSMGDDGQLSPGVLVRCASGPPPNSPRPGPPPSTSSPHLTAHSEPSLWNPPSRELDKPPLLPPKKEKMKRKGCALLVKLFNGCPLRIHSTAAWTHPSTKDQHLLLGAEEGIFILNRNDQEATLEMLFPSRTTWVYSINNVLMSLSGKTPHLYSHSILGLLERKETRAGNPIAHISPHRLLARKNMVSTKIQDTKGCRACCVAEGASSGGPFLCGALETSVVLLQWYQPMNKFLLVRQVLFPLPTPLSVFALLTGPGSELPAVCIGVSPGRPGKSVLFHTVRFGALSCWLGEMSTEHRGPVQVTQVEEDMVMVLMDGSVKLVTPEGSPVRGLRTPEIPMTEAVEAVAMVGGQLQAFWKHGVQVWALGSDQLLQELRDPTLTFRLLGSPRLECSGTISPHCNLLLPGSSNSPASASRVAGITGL

Compound | IC50 [µM]
CCCc1cc(Nc2ccc(N3CCC(O)CC3)cn2)c2c(=O)[nH]cnc2n1 [I-60, 5-[[5-(4-hydroxy-1-piperidyl)-2-pyridyl]amino]-7-propyl-3H-pyrido[2,3-d]pyrimidin-4-one] | 0.1 to 1
O=c1[nH]ccc2nc(-c3ccc(OCc4ccncc4)cc3F)cc(Nc3ccc(N4CCC(O)CC4)cn3)c12 [I-61, 2-[2-fluoro-4-(4-pyridyl-methoxy)phenyl]-4-[[5-(4-hydroxy-1-piperidyl)-2-pyridyl]amino]-6H-1,6-naphthyridin-5-one] | 0.1 to 1
CN(C)C(=O)c1ccc(-c2cc(Nc3ccc(N4CCC(O)CC4)cn3)c3c(=O)[nH]ccc3n2)c(F)c1 [I-62, 3-fluoro-4-[4-[[5-(4-hydroxy-1-piperidyl)-2-pyridyl]amino]-5-oxo-6H-1,6-naphthyridin-2-yl]-N,N-dimethyl-benzamdie] | 0.1 to 1
CC(=O)N1CCC(c2cc(Nc3ccc(N4CCC(O)CC4)cn3)c3c(=O)[nH]ccc3n2)CC1 [I-63, 2-(1-acetyl-4-piperidyl)-4-[[5-(4-hydroxy-1-piperidyl)-2-pyridyl]amino]-6H-1,6-naphthyridin-5-one] | 0.1 to 1
O=c1[nH]ccc2nc(-c3ccccc3F)cc(Nc3ccc(N4CCC(O)CC4)cn3)c12 [I-64, 2-(2-fluoro-phenyl)-4-[[5-(4-hydroxy-1-piperidyl)-2-pyridyl]amino]-6H-1,6-naphthyridin-5-one] | 0.1 to 1
COc1cccc(-c2cc(Nc3ccc(N4CCC(O)CC4)cn3)c3c(=O)[nH]ccc3n2)c1F [I-65, 2-(2-fluoro-3-methoxy-phenyl)-4-[[5-(4-hydroxy-1-piperidyl)-2-pyridyl]amino]-6H-1,6-naphthyridin-5-one] | 0.1 to 1
CCOc1ccc(F)c(-c2cc(Nc3ccc(N4CCC(O)CC4)cn3)c3c(=O)[nH]ccc3n2)c1 [I-66, 2-(5-ethoxy-2-fluoro-phenyl)-4-[[5-(4-hydroxy-1-piperidyl)-2-pyridyl]amino]-6H-1,6-naphthyridin-5-one] | 0.1 to 1
CC(C)Oc1ccc(F)c(-c2cc(Nc3ccc(N4CCC(O)CC4)cn3)c3c(=O)[nH]ccc3n2)c1 [I-67, 2-(2-fluoro-5-isopropoxy-phenyl)-4-[[5-(4-hydroxy-1-piperidyl)-2-pyridyl]amino]-6H-1,6-naphthyridin-5-one] | 0.1 to 1
Cc1cccc(-c2cc(Nc3ccc(N4CCC(O)CC4)cn3)c3c(=O)[nH]ccc3n2)c1F [I-68, 2-(2-fluoro-3-methyl-phenyl)-4-[[5-(4-hydroxy-1-piperidyl)-2-pyridyl]amino]-6H-1,6-naphthyridin-5-one] | 0.1 to 1
CC(C)(O)c1ccc(-c2cc(Nc3ccc(N4CCC(O)CC4)cn3)c3c(=O)[nH]ccc3n2)c(F)c1 [I-69, 2-[2-fluoro-4-(1-hydroxy-1-methyl-ethyl)phenyl]-4-[[5-(4-hydroxy-1-piperidyl)-2-pyridyl]amino]-6H-1,6-naphthyridin-5-one] | 0.1 to 1
CNC(=O)c1ccc(-c2cc(Nc3ccc(N4CCC(O)CC4)cn3)c3c(=O)[nH]ccc3n2)c(F)c1 [I-70, 3-fluoro-4-[4-[[5-(4-hydroxy-1-piperidyl)-2-pyridyl]amino]-5-oxo-6H-1,6-naphthyridin-2-yl]-N-methyl-benzamide] | 0.1 to 1
O=C(c1ccc(-c2cc(Nc3ccc(N4CCC(O)CC4)cn3)c3c(=O)[nH]ccc3n2)c(F)c1)N1CCCCC1 [I-71, 2-[2-fluoro-4-(piperidine-1-carbonyl)phenyl]-4-[[5-(4-hydroxy-1-piperidyl)-2-pyridyl]amino]-6H-1,6-naphthyridin 5-one] | 0.1 to 1
NC(=O)c1ccc(-c2cc(Nc3ccc(N4CCC(O)CC4)cn3)c3c(=O)[nH]ccc3n2)c(F)c1 [I-72, 3-fluoro-4-[4-[[5-(4-hydroxy-1-piperidyl)-2-pyridyl]amino]-5-oxo-6H-1,6-naphthyridin-2-yl] benzamide] | 0.1 to 1
CN(C)Cc1ccc(-c2cc(Nc3ccc(N4CCC(O)CC4)cn3)c3c(=O)[nH]ccc3n2)c(F)c1 [I-74, 2-[4-[(dimethyl-amino)methyl]-2-fluoro-phenyl]-4-[[5-(4-hydroxy-1-piperidyl)-2-pyridyl]amino]-6H-1,6-naphthyridin-5-one] | ≤ 0.1
CN1CCC(c2cc(Nc3ccc(N4CCC(O)CC4)cn3)c3c(=O)[nH]ccc3n2)CC1 [I-75, 4-[[5-(4-hydroxy-1-piperidyl)-2-pyridyl]amino]-2-(1-methyl-4-piperidyl)-6H-1,6-naphthyridin-5-one] | ≤ 0.1
CC(=O)Nc1ccc(F)c(-c2cc(Nc3ccc(N4CCC(O)CC4)cn3)c3c(=O)[nH]ccc3n2)c1 [I-76, N-[4-fluoro-3-[4-[[5-(4-hydroxy-1-piperidyl)-2-pyridyl]amino]-5-oxo-6H-1,6-naphthyridin-2-yl]phenyl] acetamide] | 0.1 to 1

Compound | IC50 [µM]
CC(O)(c1cc(Nc2ccc(N3CCC(O)CC3)cn2)c2c(=O)[nH]ccc2n1)C(F)(F)F (centres unmarked) [I-77, 4-[[5-(4-hydroxy-1-piperidyl)-2-pyridyl]amino]-2-(2,2,2-trifluoro-1-hydroxy-1-methyl-ethyl)-6H-1,6-naphthyridin-5-one] | 0.1 to 1
CC(=O)NC1CCCN(c2cc(Nc3ccc(N4CCC(O)CC4)cn3)c3c(=O)[nH]ccc3n2)C1 (centres unmarked) [I-78, N-[1-[4-[[5-(4-hydroxy-1-piperidyl)-2-pyridyl]amino]-5-oxo-6H-1,6-naphthyridin-2-yl]-3-piperidyl] acetamide] | > 1
CN(C)C(=O)c1ccc(F)c(-c2cc(Nc3ccc(N4CCC(O)CC4)cn3)c3c(=O)[nH]ccc3n2)c1 [I-79, 4-fluoro-3-[4-[[5-(4-hydroxy-1-piperidyl)-2-pyridyl]amino]-5-oxo-6H-1,6-naphthyridin-2-yl]-N,N-dimethyl-benzamide] | 0.1 to 1
O=C(c1ccc(F)c(-c2cc(Nc3ccc(N4CCC(O)CC4)cn3)c3c(=O)[nH]ccc3n2)c1)N1CCOCC1 [I-80, 2-[2-fluoro-5-(morpholine-4-carbonyl)phenyl]-4-[[5-(4-hydroxy-1-piperidyl)-2-pyridyl]amino]-6H-1,6-naphthyridin-5-one] | 0.1 to 1
O=c1[nH]ccc2nc(N3CCC[C@H](O)C3)cc(Nc3ccc(N4CCC(O)CC4)cn3)c12 [I-81, 2-[(3S)-3-hydroxy-1-piperidyl]-4-[[5-(4-hydroxy-1-piperidyl)-2-pyridyl]amino]-6H-1,6-naphthyridin-5-one] | ≤ 0.1
O=c1[nH]ccc2nc(N3CCC[C@@H](O)C3)cc(Nc3ccc(N4CCC(O)CC4)cn3)c12 [I-82, 2-[(3R)-3-hydroxy-1-piperidyl]-4-[[5-(4-hydroxy-1-piperidyl)-2-pyridyl]amino]-6H-1,6-naphthyridin-5-one] | 0.1 to 1
O=c1[nH]ccc2nc(N3CCCCC3)cc(Nc3ccc(N4CCC(O)CC4)cn3)c12 [I-83, 4-[[5-(4-hydroxy-1-piperidyl)-2-pyridyl]amino]-2-(1-piperidyl)-6H-1,6-naphthyridin-5-one] | 0.1 to 1
O=c1[nH]ccc2nc(N3CCCC3)cc(Nc3ccc(N4CCC(O)CC4)cn3)c12 [I-84, 4-[[5-(4-hydroxy-1-piperidyl)-2-pyridyl]amino]-2-pyrrolidin-yl-6H-1,6-naphthyridin-5-one] | 0.1 to 1
CNC(=O)c1ccc(F)c(-c2cc(Nc3ccc(N4CCC(O)CC4)cn3)c3c(=O)[nH]ccc3n2)c1 [I-85, 4-fluoro-3-[4-[[5-(4-hydroxy-1-piperidyl)-2-pyridyl]amino]-5-oxo-6H-1,6-naphthyridin-2-yl]-N-methyl-benzamide] | 0.1 to 1
Cc1cc(F)c(-c2cc(Nc3ccc(N4CCC(O)CC4)cn3)c3c(=O)[nH]ccc3n2)cc1C [I-86, 2-(2-fluoro-4,5-dimethyl-phenyl)-4-[[5-(4-hydroxy-1-piperidyl)-2-pyridyl]amino]-6H-1,6-naphthyridin-5-one] | 0.1 to 1
O=c1[nH]ccc2nc(N3CC[C@@H](O)C3)cc(Nc3ccc(N4CCC(O)CC4)cn3)c12 [I-87, 4-[[5-(4-hydroxy-1-piperidyl)-2-pyridyl]amino]-2-[(3R)-3-hydroxy-pyrrolidin-1-yl]-6H-1,6-naphthyridin-5-one] | 0.1 to 1
O=c1[nH]ccc2nc(N3CC[C@H](O)C3)cc(Nc3ccc(N4CCC(O)CC4)cn3)c12 [I-88, 4-[[5-(4-hydroxy-1-piperidyl)-2-pyridyl]amino]-2-[(3S)-3-hydroxy-pyrrolidin-1-yl]-6H-1,6-naphthyridin-5-one] | ≤ 0.1
Cc1c[nH]c(=O)c2c(Nc3ccc(N4CCC(O)CC4)cn3)cc(C(C)C)nc12 [I-89, 4-[[5-(4-hydroxy-1-piperidyl)-2-pyridyl]amino]-2-isopropyl-8-methyl-6H-1,6-naphthyridin-5-one] | > 1
Cc1c[nH]c(=O)c2c(Nc3ccc(N4CCC(O)CC4)cn3)ccnc12 [I-90, 4-[[5-(4-hydroxy-1-piperidyl)-2-pyridyl]amino]-8-methyl-6H-1,6-naphthyridin-5-one] | 0.1 to 1
COc1ccc(F)c(-c2cc(Nc3ccc(N4CCNCC4)cn3)c3c(=O)[nH]ccc3n2)c1F [I-91, 2-(2,6-difluoro-3-methoxy-phenyl)-4-[(5-piperazin-1-yl-2-pyridyl)amino]-6H-1,6-naphthyridin-5-one] | ≤ 0.1
COc1ccc(F)c(-c2cc(Nc3ccc(N4CCC(O)CC4)cn3)c3c(=O)[nH]ccc3n2)c1F [I-92, 2-(2,6-difluoro-3-methoxyphenyl)-4-((5-(4-hydroxypiperidin-1-yl)pyridin-2-yl)amino)-1,6-naphthyridin-5(6H)-one] | 0.1 to 1
